Data on three compounds can be found in patent US5690959A, “Pharmaceutical thermal infusion process” (priority 1993, dated 1997).

For series [1] the following is noted: cited from earlier work.
For series [2] the following is noted: cited from earlier work. This is another data set of the same source.
Series [3] is described as follows: Degradation of clavulanate on thermal infusion. It counts as physicochemical.

The structures appear in SMILES notation. Structures can show the parent of a compound that is named as a salt.

With `O=C(O)[C@H]1/C(=C/CO)O[C@@H]2CC(=O)N21` [salts of clavulanic acid, Z-(3R,5R)-2-(β-hydroxyethyldiene) clavam-3-carboxylate], in series [1] (contacted by water), the hydrolytic degradation result is “undergo spontaneous hydrolytic degradation when contacted by water”. For the same compound, the spontaneous exothermic reaction entry in series [1] (transport in bulk) was “undergo a spontaneous exothermic reaction with the release of large quantities of gas and fumes”. Also, the solubility in water entry in series [2] is on record as “freely water soluble”.

Turning to `CN/C(=N/CCSCc1nc[nH]c1C)NC#N` [Cimetidine, N"-cyano-N-methyl-N'-[2-[[(5-methyl-1-H-imidazol-4-yl)methyl]thio]-ethyl]-guanidine], the solubility in water result in series [2] is recorded as “moderately soluble in water”.

Take `O=C(O)[C@H]1/C(=C/CO)O[C@@H]2CC(=O)N21` [clavulanate]: the degradation of clavulanate entry is “eliminates the degradation” in series [3] (more appropriate thermal infusion temperature) and “minimal degree of degradation” in series [3] (thermal infusion at the more extreme temperatures). Besides, the solubility in water entry in series [2] is reported as “highly water soluble”.
